Assay results as given in paper PMC4834193 (Journal of medicinal chemistry, 2015).
Entries after “also recorded” stand apart in the source; their conditions may differ.

Tests used:
[1] = system: CYP3A; assay: CYP inhibition, human liver microsomes; details: substrate midazolam
[2] = target: hERG (Homo sapiens, UniProt Q12809); assay: hERG inhibition, CHO cells, automated patch-clamp; type: cell-based
[3] = system: TA98, TA100, TA1535, and TA1537 strains; type: cell-based; details: with/without S9, 10, 50, and 100 µM
[4] = Brain penetration study in CD1 mice; type: in vivo; details: CD1, mouse, intraperitoneal, 10 mg/kg
[5] = system: C57BL/6J mice; assay: Amphetamine-induced hyperactivity, open field activity; details: 3 mg/kg AMPH; for AMPH-stimulated hyperlocomotion at 20 mg/kg: 20 mg/kg ip; for AMPH-stimulated hyperlocomotion: 10 or 20 mg/kg ip, relative to Veh–AMPH group
[6] = target: T1, human 5-HT2B (Homo sapiens, UniProt P41595); assay: Calcium flux
[7] = target: T1, human 5-HT2B; assay: PDSP binding study, 5-HT2B
[8] = target: T2, 5-HT2C receptor (Homo sapiens, UniProt P28335); assay: PDSP binding study, 5-HT2C
T2 sequence (P28335 33-458): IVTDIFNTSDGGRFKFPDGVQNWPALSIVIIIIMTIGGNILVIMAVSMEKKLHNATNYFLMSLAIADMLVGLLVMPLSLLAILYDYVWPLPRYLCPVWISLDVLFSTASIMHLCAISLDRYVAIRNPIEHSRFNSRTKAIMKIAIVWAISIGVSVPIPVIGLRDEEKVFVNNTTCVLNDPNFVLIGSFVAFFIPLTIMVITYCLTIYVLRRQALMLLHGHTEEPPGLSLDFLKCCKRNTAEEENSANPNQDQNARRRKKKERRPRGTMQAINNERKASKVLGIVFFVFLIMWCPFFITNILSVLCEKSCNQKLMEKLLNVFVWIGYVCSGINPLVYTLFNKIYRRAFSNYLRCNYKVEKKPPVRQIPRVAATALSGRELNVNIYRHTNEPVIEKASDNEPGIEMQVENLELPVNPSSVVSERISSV

[9] = target: human 5-HT2A (Homo sapiens, UniProt P28223); assay: Calcium flux; details: from functional EC50 values
[10] = target: T1, human 5-HT2B; details: cited from earlier work
[11] = cited from earlier work
[12] = system: hERG; details: previous studies; cited from earlier work
[13] = system: 5-HT2A; details: cited from earlier work
[14] = clinical trials, compared to placebo group; cited from earlier work

T1 sequence (P41595 whole entry): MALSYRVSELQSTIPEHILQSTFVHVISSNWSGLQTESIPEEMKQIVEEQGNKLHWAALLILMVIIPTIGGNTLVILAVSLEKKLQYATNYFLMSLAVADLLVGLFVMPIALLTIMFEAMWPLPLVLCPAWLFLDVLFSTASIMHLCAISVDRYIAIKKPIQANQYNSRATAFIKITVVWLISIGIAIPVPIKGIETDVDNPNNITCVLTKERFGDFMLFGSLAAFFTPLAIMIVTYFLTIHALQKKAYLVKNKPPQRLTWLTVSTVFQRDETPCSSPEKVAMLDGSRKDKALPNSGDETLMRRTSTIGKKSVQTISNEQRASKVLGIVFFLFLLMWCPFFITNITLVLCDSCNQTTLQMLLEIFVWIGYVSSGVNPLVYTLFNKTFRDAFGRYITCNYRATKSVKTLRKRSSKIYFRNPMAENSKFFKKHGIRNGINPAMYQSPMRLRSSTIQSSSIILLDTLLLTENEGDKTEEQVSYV
human 5-HT2A, sequence (P28223 whole entry): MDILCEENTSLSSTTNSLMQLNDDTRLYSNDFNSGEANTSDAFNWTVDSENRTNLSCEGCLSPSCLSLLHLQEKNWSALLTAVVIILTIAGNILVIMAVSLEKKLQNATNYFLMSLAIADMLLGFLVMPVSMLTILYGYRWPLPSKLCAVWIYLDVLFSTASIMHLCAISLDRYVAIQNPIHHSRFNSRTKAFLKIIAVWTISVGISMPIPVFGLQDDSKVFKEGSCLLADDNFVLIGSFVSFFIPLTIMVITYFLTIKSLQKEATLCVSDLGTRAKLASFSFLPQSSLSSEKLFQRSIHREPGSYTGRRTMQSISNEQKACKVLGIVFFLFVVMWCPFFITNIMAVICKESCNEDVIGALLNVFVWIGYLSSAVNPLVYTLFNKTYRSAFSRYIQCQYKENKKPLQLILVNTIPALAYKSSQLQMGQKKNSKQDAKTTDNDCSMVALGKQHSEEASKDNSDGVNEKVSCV
hERG (Homo sapiens, UniProt Q12809), sequence (Q12809 whole entry): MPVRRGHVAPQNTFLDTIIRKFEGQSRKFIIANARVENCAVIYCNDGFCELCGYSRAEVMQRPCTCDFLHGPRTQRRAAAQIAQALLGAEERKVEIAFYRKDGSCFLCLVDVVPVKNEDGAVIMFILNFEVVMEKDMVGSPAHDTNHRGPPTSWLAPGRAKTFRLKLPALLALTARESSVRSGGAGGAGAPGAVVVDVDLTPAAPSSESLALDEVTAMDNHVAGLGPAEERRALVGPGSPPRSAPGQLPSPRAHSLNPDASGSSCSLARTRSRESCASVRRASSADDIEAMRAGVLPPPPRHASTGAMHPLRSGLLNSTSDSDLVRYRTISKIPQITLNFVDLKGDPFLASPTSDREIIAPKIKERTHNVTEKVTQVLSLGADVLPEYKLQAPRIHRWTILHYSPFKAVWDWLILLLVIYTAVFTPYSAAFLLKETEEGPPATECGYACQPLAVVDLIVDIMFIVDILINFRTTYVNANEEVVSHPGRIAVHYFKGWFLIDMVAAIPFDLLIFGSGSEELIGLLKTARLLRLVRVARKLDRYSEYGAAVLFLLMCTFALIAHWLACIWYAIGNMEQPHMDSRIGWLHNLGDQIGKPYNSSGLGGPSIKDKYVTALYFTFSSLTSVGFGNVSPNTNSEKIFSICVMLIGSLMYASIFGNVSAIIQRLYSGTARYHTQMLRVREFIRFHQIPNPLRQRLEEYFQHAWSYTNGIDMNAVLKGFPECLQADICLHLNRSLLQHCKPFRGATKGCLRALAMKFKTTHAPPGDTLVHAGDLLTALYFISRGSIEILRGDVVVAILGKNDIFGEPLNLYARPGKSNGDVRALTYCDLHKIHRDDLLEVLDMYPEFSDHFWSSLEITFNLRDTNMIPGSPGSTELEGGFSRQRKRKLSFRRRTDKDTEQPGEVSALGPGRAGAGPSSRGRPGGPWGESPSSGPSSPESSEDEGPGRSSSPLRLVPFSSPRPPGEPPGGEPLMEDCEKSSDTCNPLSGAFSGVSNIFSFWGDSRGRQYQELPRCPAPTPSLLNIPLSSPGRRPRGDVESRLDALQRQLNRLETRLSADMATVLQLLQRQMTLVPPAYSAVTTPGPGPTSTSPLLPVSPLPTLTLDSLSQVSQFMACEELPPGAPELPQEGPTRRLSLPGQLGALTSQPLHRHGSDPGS

In the case of C=CCOc1ccc(Cl)cc1[C@H]1C[C@@H]1CN.O=C(O)C(F)(F)F [(+)-13h], the “CYP inhibition at 10 µM, 3A” value [1] is reported as 27%.
In the case of C=C(F)COc1ccc(Cl)cc1[C@H]1C[C@@H]1CN.Cl [(+)-13j], the “hERG IC50” value [2] is reported as “moderate inhibition”, the Ames fluctuation test [3] is reported as “negative” and the concentration at 0.5 h ([4]; brain) is reported as 17500 ng/g. The concentration at 2 h ([4]; brain) was 14700 ng/g, the concentration at 0.5 h ([4]; plasma) was 1440 ng/mL and the concentration at 2 h ([4]; plasma) was 903 ng/mL. For the same compound, the “AMPH-stimulated hyperlocomotion at 20 mg/kg” value [5] was “most efficacious” and the AMPH-stimulated hyperlocomotion [5] was “dose dependently suppressed the hyperactivity”.
Work on C=C(C)COc1ccc(Cl)cc1[C@H]1C[C@@H]1CN [(+)-13k] yielded an EC50 [6] of 6090 nM and an Emax ([6]; read-out: Emax 5-HT2B, normalized to internal 5-HT reference) of 39%.
Work on Cl.NC[C@H]1C[C@@H]1c1cc(Cl)ccc1OCCF [(+)-13l] yielded a concentration at 0.5 h ([4]; brain) of 12800 ng/g, a concentration at 2 h ([4]; brain) of 13400 ng/g and a concentration at 0.5 h ([4]; plasma) of 1200 ng/mL. The concentration at 2 h ([4]; plasma) was 874 ng/mL and the AMPH-stimulated hyperlocomotion [5] was “not differentiated by dose”.
With C=CCOc1ccc(F)cc1[C@H]1C[C@@H]1CN.Cl [(+)-16b, (+)-((1S,2S)-2-(2-(Allyloxy)-5-fluorophenyl)cyclopropyl)-methanamine Hydrochloride] the Ki [7] was 30 to 50 nM, the Ki [8] was 30 to 50 nM and the “AMPH-stimulated hyperlocomotion at 20 mg/kg” value [5] was “most efficacious; also recorded: completely reversed”. For the same compound, the AMPH-stimulated hyperlocomotion [5] was “dose dependently suppressed the hyperactivity”.
In the case of Cl.NC[C@H]1C[C@@H]1c1cc(F)ccc1OCCF [(+)-16d, (+)-((1S,2S)-2-(5-Fluoro-2-(2-fluoroethoxy)phenyl)-cyclopropyl)methanamine Hydrochloride], the Ki [7] is reported as 30 to 50 nM, the Ki [8] is reported as 30 to 50 nM and the “selectivity for 5-HT2C against 5-HT2A” value [9] is reported as greater than 100 fold. For the same compound, the AMPH-stimulated hyperlocomotion [5] was “not differentiated by dose”.
In the case of Clc1cccc(COc2cncc(N3CCNCC3)n2)c1 [CP-809,101, 2-(3-chlorobenzyloxy)-6-(piperazinyl)-pyrazine], the “5-HT2C selectivity against 5-HT2B” value [10] is listed as “about 600 fold” and the genotoxicity [11] is listed as “genotoxicity”.
For NC[C@H]1C[C@@H]1c1cc(F)ccc1OCC1CC1 [Compound 8], the hERG inhibition [12] is listed as “no hERG inhibition”.
For c1cc2c3c(c1)[C@H]1CCC[C@H]1N3CCNC2 [WAY-163909, (7bR,10aR)-1,2,3,4,8,9,10,10a–octahydro-7bH-cyclopenta-[b][1,4]diazepino[6,7,1-hi]indole], the “agonist activity at 5-HT2A” value [13] is given as “no agonist activity”.
For C[C@H]1CNCCc2ccc(Cl)cc21 [lorcaserin], the “incidence of cardiac valve disorders” value [14] is given as “higher incidence of cardiac valve disorders”.
